Measurements published in PubChem BioAssay (NCI).
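Briefly, cells in 96-well plates were exposed to five compound concentrations for 48 h, and endpoints were estimated by linear interpolation. TGI: concentration producing complete growth inhibition.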

Assays:
Test in all cases: NCI tumour cell line growth inhibition, 48 h
[1] = system: 786-0 renal
[2] = system: LXFL 529 NSCLC
[3] = system: RXF-631 renal
[4] = system: SNB-78 CNS
[5] = system: P388/ADR leukemia
[6] = system: DMS 273 small cell lung
[7] = system: P388 leukemia
[8] = system: SN12K1 renal
[9] = system: XF 498 CNS
[10] = system: HOP-18 NSCLC

| SMILES | TGI [1] | TGI [2] | TGI [3] | TGI [4] | TGI [6] | TGI [9] | also measured |
| --- | --- | --- | --- | --- | --- | --- | --- |
| O=C(O)Cc1cc(O)c(CC(=O)O)cc1O | > 100 µM |  |  |  |  |  |  |
| C=CC1(C)CCC2=C(CCC3C(C)(C(=O)OC)CCCC23C)C1=O (stereo not drawn) |  | 36.4 µM | 31.6 µM | 80.1 µM |  |  |  |
| C=C(C)C(=O)OC1CCC2(C)C(CCC3C2CCC2(C)C(c4ccc(=O)oc4)CC4OC432)C1 (stereo not drawn) |  |  |  | 60.7 µM | 20.5 µM | 21 µM | TGI [5]: 31.7 µM; TGI [7]: 15.5 µM; TGI [8]: 17.6 µM; TGI [10]: 104 µM |
| O=C(N/N=C\c1cccc(O)c1)c1ccncc1 | > 100 µM |  |  |  |  |  |  |
| O=C1CCCCC2N(C(c3ccccc3)c3ccccc3)CC[C@@]12c1ccccc1 (mixture of isomers) |  |  | > 10 µM | > 10 µM | > 10 µM |  |  |
| Clc1ccccc1/C=C/c1cscn1 |  | > 100 µM |  | > 100 µM |  | > 100 µM |  |
